The subject of experiment [1] is KYSE-140 (Esophageal Squamous Cell Carcinoma). As to the kind of experiment: combination Emax (second highest fraction inhibited in the dose matrix, 72 h); higher = more inhibition; extreme values may be limits of the assay. The procedure, abridged:
(§1)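 After 24 hours at 37°C and 5% CO2 in 1536-well plates, cells in DMEM/F12 or RPMI plus 10% FBS received two-drug dose matrices for 72 hours. Viability came from CellTiter-Glo 2.0 luminescence and was scaled as inhibition, anchored at 0 by vehicle wells and at 1 by blank wells. Combination Emax is taken as the second-highest inhibition in the matrix, and Bliss excess as the observed combination effect less EA + EB − EA·EB, with EA and EB the single-agent effects.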

Experiment [2] has as its system RH-41 (Rhabdomyosarcoma). The experiment is described as above. Summed up: as §1
The subject of experiment [3] is MHH-ES-1 (Ewing's Sarcoma). Described as above. Summed up: as §1
Experiment [4] relates to G-402 (Other Solid Carcinomas). The description is as above. The procedure, abridged: as §1
In experiment [5] the test system is HCC70 (Breast Carcinoma). The description is as above. The procedure, abridged: as §1
In experiment [6] the test system is JVM-2 (B-Cell Non-Hodgkin's Lymphoma). Described as above. Summed up:
as §1

The subject of experiment [7] is CA46 (Burkitt's Lymphoma). Described as above. The procedure, abridged: as §1
The subject of experiment [8] is SK-HEP-1 (Hepatocellular Carcinoma). The description is as above. The procedure, abridged: as §1
The subject of experiment [9] is DU-4475 (Breast Carcinoma). Described as above. Summed up: as §1
For experiment [10], the system named is NCI-H2087 (Lung Adenocarcinoma). The experiment is described as above. The procedure, abridged:
as §1

The subject of experiment [11] is HCC1428 (Breast Carcinoma). The description is as above. The procedure, abridged:
as §1

The subject of experiment [12] is CAL-27 (Oral Cavity Carcinoma). The description is as above. Summed up: as §1
For experiment [13], the system named is CESS (Acute Myeloid Leukemia). The description is as above. Summed up: as §1
Experiment [14] concerns EB2 (Burkitt's Lymphoma). The experiment is described as above. Summed up: as §1
The test system of experiment [15] is IM-9 (Non-Cancerous). Described as above. Summed up: as §1
Experiment [16] deals with HT55 (Colorectal Carcinoma). Nature of the experiment: Bliss excess, mean over the matrix (fraction); higher = more synergy. Summed up:
as §1

Experiment [17] has as its system HCC70 (Breast Carcinoma). Described as above. Summed up: as §1
Experiment [18] relates to OACp4C (Esophageal Adenocarcinoma). The description is as above. Summed up:
as §1

The subject of experiment [19] is JHU-022 (Oral Cavity Carcinoma). The description is as above. Summed up:
as §1

Experiment [20] deals with NCI-H2228 (Lung Adenocarcinoma). The description is as above. The procedure, abridged:
as §1
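Throughout, for Bliss excess, mean over the matrix: after 72 h of two-drug dosing.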

Take `COc1cccc(OCCCN)c1-c1cc(Nc2cnc(C#N)cn2)n[nH]1` [Prexasertib] + C=CCn1c(=O)c2cnc(Nc3ccc(N4CCN(C)CC4)cc3)nc2n1-c1cccc(C(C)(C)O)n1 [AZD1775] (first compound max 1 µM, partner max 1 µM): the “combination Emax” value in experiment [1] turned out to be 0.959; in experiment [2] it was 1; in [3] it was 0.861; in experiment [4], 0.731; in [5], 0.955; in experiment [6], 0.942. The “combination Emax” value is 0.757 in experiment [7]; 0.65 in experiment [8]; 0.997 in experiment [9]; 0.804 in [10]; 0.688 in experiment [11]; 0.777 in experiment [12]. Also, the “combination Emax” value in experiment [13] came to 0.966; in experiment [14], 0.936; in experiment [15], 1. The Bliss excess in experiment [16] was 0.0259; in experiment [17], 0.0723; in experiment [18] it was -0.0189; in experiment [19], 0.0861; in experiment [20], 0.0199.

With `C=CCn1c(=O)c2cnc(Nc3ccc(N4CCN(C)CC4)cc3)nc2n1-c1cccc(C(C)(C)O)n1` [AZD1775] + C1CN(CCC1(C(=O)N[C@@H](CCO)C2=CC=C(C=C2)Cl)N)C3=NC=NC4=C3C=CN4 [Capivasertib] (first compound max 3 µM, partner max 3 µM), the “combination Emax” value in experiment [1] amounted to 0.844; in experiment [2], 0.801; in experiment [3], 0.833; in experiment [4], 0.619; in experiment [5], 0.754; in experiment [6], 0.93. Besides, the “combination Emax” value in [7] worked out at 0.843; in [8] it was 0.503; in experiment [9], 0.998; in experiment [10], 0.501; in [11], 0.524; in [12], 0.715. In addition, the figures for the “combination Emax” value in experiment [13], in experiment [14] and in experiment [15] were 0.874, 0.822 and 1, respectively. Further, the Bliss excess in experiment [16] is -0.125; in experiment [17], -0.0235; in experiment [18], 0.0005; in [19], -0.022; in experiment [20], -0.0181.

As to `CN(C)CCCOc1ccc(-c2ccc3ncc4c(c3c2)n(C2CCOCC2)c(=O)n4C)cn1` [AZD0156] + C[C@@H]1COCCN1C2=NC(=NC(=C2)C3(CC3)[S@](=N)(=O)C)C4=C5C=CNC5=NC=C4 [AZD6738] (first compound max 1 µM, 7x7, partner max 10 µM), the “combination Emax” value worked out at 0.934 in experiment [1]; 0.874 in experiment [2]; 0.638 in experiment [3]; 0.534 in [4]; 0.829 in experiment [5]; 0.849 in [6]. The “combination Emax” value in experiment [7] came out at 0.746; in experiment [8], 0.391; in [9], 0.913; in experiment [10], 0.666; in experiment [11], 0.132; in experiment [12], 0.586. Also, the “combination Emax” value in experiment [13] amounted to 0.923; in experiment [14] it was 0.774; in experiment [15], 0.976. Further, the Bliss excess is -0.0042 in experiment [16]; -0.0103 in experiment [17]; 0.0169 in experiment [18]; -0.0103 in experiment [19]; -0.024 in experiment [20].

Take `COc1nnc2ccc(N3CCC(c4ccc(OCCN5CCN(C)C(=O)[C@H]5C)cc4)CC3)nn12` [AZD5153] + Cn1cnc2c(F)c(Nc3ccc(Br)cc3Cl)c(C(=O)NOCCO)cc21 [Selumetinib] (first compound max 1 µM, 7x7, partner max 10 µM): the “combination Emax” value in experiment [1] stood at 0.557; in experiment [2], 0.92; in [3], 0.707; in experiment [4], 0.797; in experiment [5], 0.584; in experiment [6], 0.702. Moreover, the “combination Emax” value in experiment [7] amounted to 0.633; in experiment [8] it was 0.234; in experiment [9], 1; in [10], 0.631; in experiment [11], 0.728; in experiment [12] it was 0.795. Besides, the “combination Emax” value worked out at 0.606 in [13], 0.502 in [14] and 0.952 in experiment [15]. The Bliss excess in experiment [16] is 0.0584; in [17] it was 0.0982; in experiment [18], 0.101; in experiment [19], -0.0807; in [20], -0.0535.

Regarding `CC1(C)CCC(CN2CCN(c3ccc(C(=O)NS(=O)(=O)c4ccc(NCC5CCOCC5)c([N+](=O)[O-])c4)c(Oc4cnc5[nH]ccc5c4)c3)CC2)=C(c2ccc(Cl)cc2)C1` [Venetoclax] + Cn1cnc2c(F)c(Nc3ccc(Br)cc3Cl)c(C(=O)NOCCO)cc21 [Selumetinib] (first compound max 1 µM, 7x7, partner max 3 µM), the “combination Emax” value in experiment [1] turned out to be 0.233; in experiment [2], 0.289; in [3] it was 0.0867; in experiment [4], 0.2; in [5], 0.591; in [6] it was 0.392. Also, the “combination Emax” value worked out at 0.403 in experiment [7]; 0.234 in [8]; 1 in [9]; 0.378 in experiment [10]; 0.132 in [11]; 0.466 in [12]. The “combination Emax” value in experiment [13] was determined as 0.319; in experiment [14], 0.755; in experiment [15], 0.901. The Bliss excess is -0.0356 in experiment [16]; 0.0707 in experiment [17]; 0.0303 in experiment [18]; -0.0181 in experiment [19]; -0.0135 in [20].

As for `COc1cccc(OCCCN)c1-c1cc(Nc2cnc(C#N)cn2)n[nH]1` [Prexasertib] + C[C@@H]1COCCN1C2=NC(=NC(=C2)C3(CC3)[S@](=N)(=O)C)C4=C5C=CNC5=NC=C4 [AZD6738] (first compound max 1 µM, 7x7, partner max 10 µM), the “combination Emax” value worked out at 0.959 in experiment [1]; 0.97 in experiment [2]; 0.693 in [3]; 0.605 in experiment [4]; 0.908 in experiment [5]; 0.949 in experiment [6]. In addition, the “combination Emax” value in [7] amounted to 0.599; in experiment [8], 0.462; in [9], 0.995; in experiment [10], 0.797; in [11] it was 0.378; in experiment [12], 0.504. The entries for the “combination Emax” value in experiment [13], in [14] and in experiment [15] were 0.978, 0.92 and 1, respectively. In addition, the Bliss excess was 0.0367 in experiment [16]; -0.0133 in [17]; -0.0882 in experiment [18]; -0.0238 in [19]; -0.0434 in experiment [20].

As to `CC1(C)CCC(CN2CCN(c3ccc(C(=O)NS(=O)(=O)c4ccc(NCC5CCOCC5)c([N+](=O)[O-])c4)c(Oc4cnc5[nH]ccc5c4)c3)CC2)=C(c2ccc(Cl)cc2)C1` [Venetoclax] + Cc1cc2ncnn2cc1Nc1ncc2c(n1)n(C1CCOCC1)c(=O)n2C [AZD7648] (first compound max 1 µM, 7x7, partner max 10 µM), the “combination Emax” value worked out at 0.398 in experiment [1]; 0.608 in experiment [2]; 0.26 in experiment [3]; 0.501 in [4]; 0.399 in experiment [5]; 0.528 in experiment [6]. Moreover, the “combination Emax” value turned out to be 0.132 in [7]; 0.219 in [8]; 0.23 in experiment [9]; 0.133 in experiment [10]; 0.139 in [11]; 0.174 in experiment [12]. Also, the “combination Emax” value was determined as 0.327 in [13], 0.756 in [14] and 0.655 in experiment [15]. Also, the Bliss excess in experiment [16] is -0.0069; in [17], -0.0423; in experiment [18], -0.0027; in [19], -0.0392; in [20], -0.0072.

These data come from the supplement of paper PMC11061612.
